Read-outs that look alike come from different tables or passages of the source.
Tests used:
[1] = system: erythrocytic forms of P. falciparum (strain 3D7); assay: Viability screening of antiplasmodial activity (SYBR-gold DNA quantification, 96 h); assay type: cell-based, Plasmodium falciparum; conditions: for activity at 0.3 µM / activity at 3 µM: 96 h; for activity at 0.3 µM: read-out: Parasitemia (3D7) at 0.3 µM [%]; for activity at 3 µM: read-out: Parasitemia (3D7) at 3 µM [%]; for SI (Selectivity index for 3D7 erythrocytic forms versus HEK293 cells): 3D7 versus HEK293 cells
[2] = molecular target: rPfGSK-3 (Plasmodium falciparum, UniProt O77344); assay: KinaseGlo Plus assay for inhibition of PfGSK-3; assay type: biochemical
[3] = system: rHsGSK-3; assay: KinaseGlo Plus assay for inhibition of HsGSK-3; assay type: biochemical, human; conditions: for rHsGSK-3 Activity at 10 µM [%]: remaining activity, calculated on DMSO controls, Table 4
Experimental: A commercial luminescence-based kinase assay was used to investigate the enzymatic activity of kinases and to test potential kinase inhibitors. The KinaseGlo Plus assay (KinaseGlo Plus, Promega, Madison, WI, USA) provides a linear luminescence signal at ATP concentrations up to 100 μM and offers high signal stability. First, the kinase to be investigated and a corresponding substrate in the presence of ATP are used to perform the kinase reaction. During the substrate phosphorylation, ATP is consumed depending on the kinase activity. Subsequently, luminescence is generated by means of luciferase which is contained in the KinaseGlo Reagent. The intensity of the luminescence signal depends on the amount of ATP remaining in the reaction mixture. The luminescence […] to the enzymatic activity of the kinase. The following approach was used for the kinase reaction: rPfGSK-3 (see 3.4) or rHsGSK-3 (Promega, Madison, WI, USA) (20 ng), GS-1 substrate (Promega, Madison, WI, USA) (12 µg) and ATP (6 µg) (Ultra Pure, Promega, Madison, WI, USA) in 1× kinase reaction buffer (40 mM Tris-HCl pH 7.5, 20 mM MgCl2, 0.1 mg/mL BSA; final reaction volume 5 µL). The kinase reaction was performed for 30 min at 30 °C. The reaction mixture was then mixed with KinaseGlo Reagent (5 µL) and incubated for 10 min at room temperature. The mixture was transferred to a white 384-well plate (NUNC, ThermoFisher, Waltham, MA, USA) and the luminescence signal was measured in an EnVision Multilable Plate Reader (PerkinElmer, Waltham, MA, USA; integration time 0.5 sec/well). For the investigation, potential kinase inhibitors could be added directly to the kinase reaction. All kinase inhibitors were dissolved in DMSO. By appropriate pre-dilution of the inhibitors in kinase reaction buffer the final DMSO concentration in the kinase reaction was at most 1%. As negative control 1% DMSO without substance was measured. Since the luminescence signal is […] proportional to the ATP concentration, a control reaction (reaction without kinase) was measured simultaneously. The difference between kinase reaction and control reaction corresponds to the kinase activity. Using GraphPad Prism (version 6) the measured values were plotted and normalized to the DMSO control.

[4] = in vitro; assay type: cell-based, human; conditions: human, HEK293T Viability at 30 µM [%]
Experimental: (§1) Cytotoxic effects of test compounds on eukaryotic cells were investigated using a HEK293T cell viability assay. First, the cell density of a HEK293T culture was determined. […] The supernatant was then aspirated and fresh culture medium was added to 200 μL into which the test compounds were previously added. All substances were previously dissolved in DMSO. […] The viability of the cells was then examined by adding PrestoBlue® Cell Viability Agent (Invitrogen, Carlsbad, CA, USA). The supernatant was removed, 10% PrestoBlue® was added in preheated PBS and the culture was incubated for 30 min at 37 °C. In cells with an active metabolism, the PrestoBlue dye is reduced, causing it to fluorescence. The fluorescence (λex = 560 nm, λem = 590 nm) was measured in an EnVision Multilable Plate Reader (Perkin Elmer, Waltham, MA, USA; integration time 0.1 sec/well).

[5] = system: HEK293T cells; assay: in vitro; assay type: cell-based, human; conditions: 30 µM
Experimental: as §1

[6] = Plasmodium falciparum, 3D7, strain 3D7, erythrocytic forms
[7] = Plasmodium falciparum, 0.3 µM, strain 3D7, calculated on DMSO controls
[8] = Plasmodium falciparum, 3 µM, strain 3D7, calculated on DMSO controls
[9] = 10 µM, remaining activity, calculated on DMSO controls, Table 3, read-out: rPfGSK-3 Activity at 10 µM [%]
[10] = read-out: rPfGSK-3 Activity at 10 µM [%], 10 µM, remaining activity, calculated on DMSO controls, Table 3

Sequence of rPfGSK-3 (O77344 entry or part of it): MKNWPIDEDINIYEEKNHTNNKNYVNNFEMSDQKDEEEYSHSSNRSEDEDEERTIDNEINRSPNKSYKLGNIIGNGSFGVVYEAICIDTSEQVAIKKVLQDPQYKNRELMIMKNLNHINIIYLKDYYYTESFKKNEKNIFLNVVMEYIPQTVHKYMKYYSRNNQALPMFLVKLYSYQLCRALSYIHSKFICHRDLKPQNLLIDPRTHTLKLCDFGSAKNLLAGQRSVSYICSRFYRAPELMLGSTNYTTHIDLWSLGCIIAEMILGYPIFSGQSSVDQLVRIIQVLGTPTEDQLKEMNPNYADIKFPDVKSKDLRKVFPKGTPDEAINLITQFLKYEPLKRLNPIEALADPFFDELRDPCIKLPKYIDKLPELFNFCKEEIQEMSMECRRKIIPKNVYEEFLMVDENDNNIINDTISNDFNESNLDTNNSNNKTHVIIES

Row | Structure (SMILES) | IC50 [1, 6] [nM] | activity at 0.3 µM [1, 7] [%] | activity at 3 µM [1, 8] [%] | viability at 48 h, 30 µM [4] [%] | rHsGSK-3 Activity at 10 µM [%] [3] [%] | also measured
1 | N#Cc1c(N)nc2sc(C(=O)Nc3ccc(Cl)cc3)c(N)c2c1-c1ccccc1Cl [Compound 3] | 199 | – | – | – | – | IC50 ([1]; strain 3D7, erythrocytic forms): 199 nM; inhibition of plasmodial GSK-3 (in words) [2]: neither an inhibitor; inhibition of human GSK-3 (in words) [3]: neither an inhibitor
2 | CNC(=O)c1sc2nc(N)c(C#N)c(-c3cccc(C)c3)c2c1N [Compound 9j, 3,6-Diamino-5-cyano-N-methyl-4-(3-methylphenyl)thieno[2,3-b]pyridine-2-carboxamide] | – | 74.6 ± 28.6 | 108 ± 24.2 | 67.2 ± 21.5 | 87.6 ± 7.4 | –
3 | Cc1cccc(-c2c(C#N)c(N)nc3sc(C(=O)NC4CC4)c(N)c23)c1 [Compound 9m, 3,6-Diamino-5-cyano-N-cyclopropyl-4-(3-methylphenyl)thieno[2,3-b]pyridine-2-carboxamide] | – | 74.9 ± 15.7 | 88 ± 18.2 | 74.3 ± 31.1 | 93.8 ± 2.1 | remaining activity at 10 µM [2, 9]: < 40%
4 | Cc1cccc(-c2c(C#N)c(N)nc3sc(C(=O)NCCN4CCOCC4)c(N)c23)c1 [Compound 9n, 3,6-Diamino-5-cyano-N-(2-morpholinoethyl)-4-(3-methylphenyl)thieno[2,3-b]pyridine-2-carboxamide] | – | 58.7 ± 25.9 | 91.6 ± 19.2 | 70.9 ± 23.6 | 93.9 ± 3.2 | remaining activity at 10 µM [2, 9]: < 40%
5 | Nc1c(C(=O)Nc2ccc(Cl)cc2)sc2nc3c(c(-c4ccccc4)c12)CCC3 [Compound 17b, 3-Amino-N-(4-chlorophenyl)-4-phenyl-6,7-dihydro-5H-cyclopenta[b]thieno[3,2-e]pyridine-2-carboxamide] | 192 | 7.2 ± 11.3 | 7.7 ± 14.7 | 92.7 ± 11.7 | – | SI (Selectivity index for 3D7 erythrocytic forms versus HEK293 cells) [1]: >100; HEK293T Viability at 30 µM [%] ([5]; human, 48 h): 89.0 ± 15.8%; remaining activity at 10 µM [2, 10]: 104 ± 15.5%
6 | Nc1c(C(=O)Nc2ccc(F)cc2)sc2nc3c(c(-c4ccccc4)c12)CCC3 [Compound 17c, 3-Amino-N-(4-fluorophenyl)-4-phenyl-6,7-dihydro-5H-cyclopenta[b]thieno[3,2-e]pyridine-2-carboxamide] | 71.6 | 23.6 ± 16.5 | 9.9 ± 17.1 | 92.7 ± 11.7 | – | SI (Selectivity index for 3D7 erythrocytic forms versus HEK293 cells) [1]: >100; IC50 (3D7) [nM] ([1]; strain 3D7, erythrocytic forms): two-digit nanomolar range; HEK293T Viability at 30 µM [%] ([5]; human, 48 h): 72.4 ± 23.4%; remaining activity at 10 µM [2, 10]: 103 ± 6.2%
7 | Cc1cccc(-c2c3c(nc4sc(C(=O)Nc5ccc(Cl)cc5)c(N)c24)CCCC3)c1 [Compound 17e, 3-Amino-N-(4-chlorophenyl)-4-(3-methylphenyl)-5,6,7,8-tetrahydrothieno[2,3-b]quinoline-2-carbox-amide] | – | – | – | – | – | Parasitemia (3D7) at 0.3 µM [%] ([1]; 0.3 µM, strain 3D7, calculated on DMSO controls): 5.0 ± 11.6%; Parasitemia (3D7) at 3 µM [%] ([1]; 3 µM, strain 3D7, calculated on DMSO controls): 4.7 ± 13.5%; HEK293T Viability at 30 µM [%] [5]: 57.9 ± 20.6%; rPfGSK-3 Activity at 10 µM [%] ([2]; 10 µM, remaining activity, calculated on DMSO controls, Table 3): 103.1 ± 10.7%

From article PMC7397174, “4-Arylthieno[2,3-b]pyridine-2-carboxamides Are a New Class of Antiplasmodial Agents” (Molecules, 2020)
